One assay relates to neutrophils. As to the kind of experiment: Superoxide generation by stimulated neutrophils (SOD-inhibitable ferricytochrome C reduction). Format: cell-based, human. To be noted: for O2 released (superoxide generation): 2×10^6 neutrophils/ml, twenty minutes after addition. As for the experimental part:
Superoxide generation was determined by measuring the superoxide dismutase (SOD)-inhibitable reduction of ferricytochrome C (Thomas et al., 1992, incorporated herein by reference). Briefly, 2×10^6 neutrophils/ml were incubated with, ferricytochrome C (433 μg/ml) and glucose (1.1 mM) in phosphate buffered saline (PBS) at 37° C. for five minutes, in presence or absence of 1 μg/ml SOD. Twenty minutes after addition of NTP, IL-8, or PBS, aliquots were removed, cooled to 4° C., and filtered through […] particle separators (Amicon). The optical absorption of the filtrate was then read at 550 nm. The amount of O2 generated was calculated by the difference in absorbance of the samples with or without SOD, using a 15.5 millimolar extinction coefficient at 550 nm for cytochrome C reduction.

The next assay relates to human neutrophils. As to the kind of experiment: Neutrophil chemotaxis in Modified Boyden 48-well Microchemotaxis Chambers. In kind it is cell-based. Particulars: for maximal stimulation of neutrophil chemotaxis relative to thrombin or IL-8: FIG. 3 vs FIG. 1C. As for the experimental part:
Human neutrophils were isolated from blood of healthy volunteers, drawn into one-tenth volume of trisodium citrate. The neutrophils were isolated from the blood using established Ficoll-Hypaque (MONO POLYRESOLVING MEDIUM™) protocol, Kalmer et al. 1988, specifically incorporated herein by reference. The cells were washed in HBSS containing 20 mM HEPES, pH 7.4 (HHBSS), pelleted by centrifugation (600×g), and resuspended into HHBSS at the indicated density. Trypan blue exclusion assays indicated greater than 97% cell viability.
Freshly isolated human neutrophils (150,000 cells per 50 μl) were applied to wells of Modified Boyden 48-well Microchemotaxis Chambers (Neuro Probe, Cabin John, Md.) with pre-wet […], PVP-free polycarbonate membranes (Neuro Probe, Cabin John, Md.) (see Mansfield, et al. 1990, which is specifically incorporated herein by reference). The lower well in these chambers were filled with 27 μl of HHBSS solution containing indicated concentrations of substances to be tested. After loading, the chambers were incubated for 2 hours at 37° C. Membranes were removed, rinsed with HHBSS, fixed and stained using DIFF-QUIK® to visualize and quantitate cells that had migrated through the filters. For each assay condition, cells migrating through 4 wells were examined using a Nikon Microscope (at 400×). For each well, the total cells present in 6 random fields were counted and recorded. Each assay represents data from at least three analyses of the same type with neutrophils isolated from at least two individuals.
Freshly isolated human peripheral blood neutrophils were added to wells of Modified Boyden Microwell Chemotaxis Chambers and the number of cells migrating through the filters was determined as described in Materials and Methods. For each assay, cells migrating through 4 wells were examined, counted, and recorded (6 random fields per well) using a Nikon LabPhot Microscope (400×).
Human neutrophils were added to wells of Boyden Microwell Chambers and assayed for directed chemotaxis toward indicated concentrations of synthetic peptides representing the tethered ligand region of PART (SFLLRNPNDKYEPF—SEQ ID NO.: 7), or TRAP-508, the high-affinity receptor binding domain of human thrombin ([…]—SEQ ID NO.: 8).
Indicated concentrations of peptides representing residues 26-41 of the human (SEQ ID NO.: 1) (∇) or hamster (SEQ ID NO.: 2) (∘) PART receptor component were added to lower wells of Boyden Microwell Chambers and neutrophil chemotaxis toward the peptides was assayed as described above.

The subject of assay [1] is NTP receptor on human neutrophils. As to the kind of experiment: 125I-NTP-Y saturation binding to neutrophils. As for the experimental part: NTP was radiolabeled using IODO-GEN® (Pierce) catalyzed iodination (Fraker and Speck, 1978, specifically incorporated herein by reference). 5 mCi of Na^125I (Amersham, UK) was incubated in glass tubes coated with IODO-GEN® with 250 μg of HPLC-purified NTP-Y in 250 μl of Phosphate Buffered Saline (PBS), pH 7.2. After 7 minutes, the radiolabeled peptide was separated from free ^125Iodine by its adsorption to a C-18 SEP PAK® column, followed by elution with 100% acetonitrile. The eluted radioactive peptide was then dried under vacuum to remove acetonitrile, rehydrated with PBS, and stored as frozen aliquots (−20° C.) at a concentration of 100 μg/ml.
For saturation binding assays, […] were incubated at 37° C. with indicated concentrations of ^125I-NTP-Y in 100 μl of DV medium containing 20 mM HEPES buffer, pH 7.4, in 0.6 ml eppendorf tubes. The binding was terminated and ^125I-NTP-Y that was bound to cells was separated from free ^125I-NTP-Y by rapid filtration and rinsing (2× with 10 mls of 4° C. PBS) through Whatman GF/C filters, using a Millipore filtration apparatus. Radioactivity on filters was then counted in a gamma counter (Beckman Instruments, Inc., model Gamma 4000). Nonspecific binding of ^125I-NTP-Y was measured in the presence of a 500-fold molar excess of unlabeled peptide and was subtracted from total binding to determine the amount of specific (saturable) binding.
NTP was synthesized with an N-terminal tyrosine (YRRPESKATNATLDPR—SEQ ID NO.: 6), analyzed for chemotactic activity, and radiolabeled as described in methods. […] Specific binding was determined by subtracting the nonspecific binding of ^125I-NTP-Y (binding in the presence of 500-fold molar excess of unlabeled NTP-Y) from the total binding. Insert represents a Scatchard-like analysis of the binding isotherm using total radioactivity in the medium as a measure of free ligand. […]

In assay [2] the test system is fibroblasts. As to the kind of experiment: Parallel 125I-NTP-Y binding studies with fibroblasts. The text has this: The chemotactic effects of NTP appeared to be mediated by interaction with specific NTP receptor binding sites on the surface of neutrophils.
Assay [3] has as its system fibroblasts. As to the kind of experiment: c-fos and other G-protein initiated signals in fibroblasts. Format: cell-based. Particulars: compared with proteolytically active thrombin. The source says: Therefore, the PART activating peptide fragment was not sufficient to stimulate chemotaxis.
In assay [4] the test system is fibroblasts and other cells. To be noted: Van Obberghen-Schilling and Pouyssegur 1993; cited from earlier work.

Ends that are not written are not given here.

As for IL-8: recombinant IL-8, the “O2 released (superoxide generation)” value in the assay with neutrophils (400 nmolar IL-8) came to 102 ± 16 nmol. In the assay with human neutrophils (FIG. 1, 2 hours at 37° C., read-out: concentration required for half-maximal stimulation of neutrophil chemotaxis), the EC50 was around 10 nM.

Turning to “RQPESEMTDA TVNPR (RQPESEMTDATVNPR) [SEQ ID NO.: 2, peptide representing residues 26-41 of the hamster PART receptor component]”, in the assay with human neutrophils, the “maximal stimulation of neutrophil chemotaxis relative to thrombin or IL-8” value was “nearly equivalent to that seen with thrombin or IL-8”.

Take SFFLRN [reference compound]: the neutrophil chemotaxis entry in the assay with human neutrophils (concentrations up to 2000-fold higher than NTP) is listed as “did not”.

Turning to “^125I-NTP-Y: NTP-Y radiolabeled with 125I by IODO-GEN catalyzed iodination (YRRPESKATNATLDPR; also: 125I radiolabel)”, in assay [1] (40 min at 37° C., FIG. 5), the “binding to human neutrophils” value was “specified and saturable”. Also, in assay [1] (human neutrophils, FIG. 5 insert), the “NTP receptors per cell (saturation curve and Scatchard-like analysis)” value is given as around 3000 receptors per cell. Also, the “dose-response curve compared with NTP” value in assay [1] (iodinated peptide, iodination does not alter peptide activity) is reported as “nearly identical to NTP”. The “specific binding to fibroblasts” value with fibroblasts [2] is on record as “no detectable specific binding”.

“SFLLRNPNDKYEPF [PART activating peptide fragment, synthetic peptide representing the tethered ligand region of PART, reference compound]”: the “stimulation of c-fos and other G-protein initiated signals” value with fibroblasts [3] is “nearly the same extent as proteolytically active thrombin”. Also, the neutrophil chemotaxis entry in the assay with human neutrophils (concentrations up to 7.0 μM, FIG. 2) was “only marginally chemotactic”.

“RRPESKATNA TLDPR (RRPESKATNATLDPR) [SEQ ID NO.: 1, peptide representing residues 26-41 of the human PART receptor component]”: the “maximal stimulation of neutrophil chemotaxis relative to thrombin or IL-8” value in the assay on human neutrophils was “nearly equivalent to that seen with thrombin or IL-8”.

As for “NTP: released N-terminal fragment peptide of PART; species (human or hamster) not stated at these places (RQPESEMTDATVNPR)”, in the assay with neutrophils (800 nM NTP vs 400 nmolar IL-8), the “superoxide generation compared to IL-8” value is recorded as “negligible”. The “O2 released (superoxide generation)” value with neutrophils (800 nM NTP) was determined as 9 ± 0.9 nmol. The neutrophil chemotaxis entry in the assay on human neutrophils (NTP, Example 4) is “stimulated neutrophil chemotaxis”. Besides, in assay [4], the “activity on fibroblasts and other cells” value is “no apparent activity”.

The values are drawn from patent US20050019331A1, “Synthetic peptide neutrophil cell chemotactic agents” (Chrysalis Biotechnology, priority 1994, published 2005).
